From US20120114588A1, “IBAT INHIBITORS FOR TREATMENT OF METABOLIC DISORDERS AND RELATED CONDITIONS” (ALBIREO AB, priority 2010, published 2012) come the findings set out here.

One series concerns the target T1, Slc10a2 protein (Mus musculus, UniProt P70172).
T1 construct: from tissue; host or cells: living male ob/ob mice (Taconic), ileum in vivo
T1 sequence (P70172 1-348): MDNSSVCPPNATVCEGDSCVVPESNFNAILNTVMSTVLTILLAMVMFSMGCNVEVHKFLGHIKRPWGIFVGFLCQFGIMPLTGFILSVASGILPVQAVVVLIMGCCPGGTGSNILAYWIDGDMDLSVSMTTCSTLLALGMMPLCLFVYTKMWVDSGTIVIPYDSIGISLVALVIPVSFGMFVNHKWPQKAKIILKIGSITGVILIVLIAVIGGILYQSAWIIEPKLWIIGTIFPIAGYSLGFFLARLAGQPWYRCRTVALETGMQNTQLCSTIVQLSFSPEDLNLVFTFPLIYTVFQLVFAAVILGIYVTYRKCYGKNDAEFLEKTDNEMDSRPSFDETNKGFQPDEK
In words: ob/ob mice gavaged with Slc10a2 inhibitor for 11 days: plasma, liver and distal ileum analyses. The class given is in vivo. The source says: A diet enriched in sucrose (D12329, Research Diets, NJ) together with drinking water supplemented with 10% fructose was used for the high carbohydrate experiment. Animals had free access to the diet for two weeks. Control animals received standard mouse chow and tap water. Male ob/ob animals were from Taconic, DK. Ob/ob animals were gavaged with a specific Slc10a2 inhibitor Example 14 or a control vehicle for 11 days. Animals had free access to food and water. All animal care and experiments were conducted in accordance with accepted standards of humane animal care and approved by the Ethics Committee of Goteborg University.
Blood was centrifuged, and plasma was analyzed for total cholesterol and TGs using the IL TestTM cholesterol 181618-10 and TG 181610-60 kits on the Monarch 2000 system (IL Scandinavia, Gothenburg, Sweden). Lipoprotein cholesterol profiles were obtained by separation of […] of plasma using a micro fast protein liquid chromatography (FPLC) system for the generation of lipoprotein profiles (15). Plasma insulin levels were analyzed using a rodent insulin RIA kit (Linco, St. Charles, Mich.). Total plasma glucose was analyzed using the IL Test (IL Scandinavia, Gothenburg, Sweden) on the Monark 2000 system. Blood glucose was determined using a Bayer Elite glucometer (Bayer diagnostics, Germany). Plasma free fatty acids were analyzed employing a commercial 3 NEFA kit (Wako Chemicals
Total RNA was extracted from frozen livers or distal ileum with TRIzol reagent (Invitrogen, Carlsbad, Calif.). The RNA was DNase-treated with RQ1 Dnase (Promega, Madison, Wis.). cDNA synthesis and quantitative real time PCR was performed employing HPRT as endogenous control (18). Primer and probe information are available upon request.
A ligand blot employing ^125I-labeled rabbit β-VLDL was used to detect LDL receptors in liver as described (19). Hepatic SR-BI was assayed by immunoblot using a rodent specific rabbit polyclonal antibody (Novus Biologicals Inc., Littleton, Colo.), as described (20). Cyp7a1 protein levels were assayed in liver microsomal protein samples by immunoblot using a rabbit polyclonal antibody directed against the C-terminus of the CYP7A1 (18). To detect SREBP1 protein, cytoplasmic and nuclear protein preparations from liver were performed using the NE—PER reagent (Pierce), including Complete protease inhibitor (Roche), 1 mM phenyl-methylsulfonyl fluoride, 0.5 mM leupeptin, 5 μg/ml Calpain inhibitor I (Biomol, Pa.), following the manufacturer's instructions. 50 μg and 25 μg of cytoplasmic and nuclear liver protein fractions, respectively, were electrophoresed on NuPage Bis-Tris gels (Invitrogen) and transferred to nitrocellulose membranes. Membranes were blocked in 5% skimmed milk powder and incubated with a mouse monoclonal antibody raised against the N′-terminus of SREBP1 (Labvision Corporation, Calif.) at 1.5 μg/mL in 5% skimmed milk powder for two hours at room temperature. An HRP conjugated goat anti-mouse F(ab)2 antibody (Pierce) was used for detection of specific signals together with Supersignal reagent (Pierce) and a Fuji BAS 1800 analyzer (Fuji Photo Film Co.). To analyze phosphorylated liver proteins by western blot, total liver protein homogenates were prepared from frozen tissue by homogenization using a polytron followed by sonication in a buffer containing 20 mM Tris-Hcl, pH 7,4, 1% Triton X-100, 10% Glycerol, 150 mM NaCl, 2 mM EDTA, 25 mM betaglycerophosphate, 20 mM sodium floride, 1 mM sodium orthovanadate, 2 mM sodium pyrophosphate, 1 mM benzamidine, 1 mM phenyl-methylsulfonyl fluoride, 0.5 mM leupeptin, Complete proteinase inhibitor (Roche), and then centrifuged at 14 000 rpm in a microcentrifuge, and the supernatant was recovered. 50 μg protein was loaded on NuPage Bis-Tris gels (Invitrogen) and transferred to nitrocellulose membranes. […]

Series [1] in a line: Phase IIb placebo-controlled study in patients with Chronic Idiopathic Constipation: plasma glucose. The format is in vivo, human (patients). The note with it: for Glucose concentration, Baseline, Mean ± SD: 10 mg group. The text has this: In a Phase Ilb, Double-blind, Randomised, Placebo-controlled, Multi-centre, Dose-finding,
Efficacy and Safety of a Range of Doses of the substance according to Example 14 in Patients with Chronic Idiopathic Constipation in addition also have glucose values above Upper limit of normal (ULN), treated for 56 days. The patient was a male or non-pregnant female 20 years of age and 80 years of age with body mass index (BMI) 18.5 but <35.
p-values were obtained from an analysis of covariance with treatment group, demographic group and treatment-by-demographic group as fixed factors and baseline value as a covariate in the model. No adjustment for multiple comparisons was made.

Series [2] concerns the target T2, Ileal Bile Acid Transporter Human (Homo sapiens, UniProt Q12908).
T2 construct: expressed in transfected cells; host or cells: HEK
T2 sequence (Q12908 1-348): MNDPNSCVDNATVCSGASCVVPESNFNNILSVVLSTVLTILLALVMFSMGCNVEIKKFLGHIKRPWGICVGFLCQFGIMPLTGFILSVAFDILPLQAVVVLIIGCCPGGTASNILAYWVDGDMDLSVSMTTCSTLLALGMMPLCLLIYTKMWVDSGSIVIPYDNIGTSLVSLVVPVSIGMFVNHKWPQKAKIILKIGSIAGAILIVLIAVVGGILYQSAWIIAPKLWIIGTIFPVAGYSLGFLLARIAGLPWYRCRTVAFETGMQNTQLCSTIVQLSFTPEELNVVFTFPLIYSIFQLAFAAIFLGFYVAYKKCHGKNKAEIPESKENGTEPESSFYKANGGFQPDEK
Description: ISBT Hu HEK Uptake SPA: Human HEK Glycocholic acid Uptake Radiometric SPA. The conditions noted are these: human IBAT in HEK cells. The class given is cell-based. The protocol:
ISBT Hu HEK Uptake SPA 13203 IBAT HUM Ileal Bile Acid Transporter Human HEK Glycocholic acid Uptake Radiometric—SPA Inhibitor IC50 Mean IC50 (nM) was determined for the compounds of examples 1-14

For a further series, the target named is T3, IBAT (Mus musculus, UniProt P70172).
T3 construct: from tissue; host or cells: living ApoE knock-out C57BL/6 mice (intestine, in vivo)
T3 sequence (P70172 1-348): T1 sequence (P70172 1-348)
In words: 75SeHCAT intestinal absorption (faecal excretion / body retention) in ApoE knock out mice. The class given is in vivo. The note with it: single oral dose 0.156 μmol/kg, 75SeHCAT given 30 min later, 24 h collection, read-out: % inhibition 0.156 μmol/kg (mean IBAT inhibitory effect). The protocol:
Species Mouse; Strain ApoE knock out; Substrain C57BL/6; Sex Female; Total No. of animals 70; Body weight range 20 g to 22 g; Supplier Mollegaard's Breeding (Skensved, Denmark); Identification method ID cards (bar code).
Acclimatisation At least one week at the Section of Laboratory; Animal Resource at AstraZeneca; Housing conditions Kept five by five in cages (Makrolon III, 7 dm2) in a room with regulated temperature ([…]), relative humidity (40% to 60%) and a 12/12 hours light/dark cycle. Diet Free access to R3 pellets (Lactamin, Vadstena, Sweden) during the housing and experimental period. Water Free access to tap water during the housing and experimental period.
Volume(s) of administration 0.1 mL per mousen […]
The animals were orally administered vehicle or Example 14 (0.156 , 0.625 or 2.5 pmol/kg) at 13:00 o'clock on the experimental day. […] The gamma radioactivities of 75SeHCAT in the faeces and in the gall bladder-intestine were separately counted by 1282 CompuGamma CS Gamma counter (Wallac oy, Turku, Finland). The stability as well as the quantity of the 75SeHCAT administered to each mouse, were controlled with an additional 75SeHCAT aliquot following the same experimental process as other tested samples in the study. […]
The mean IBAT inhibitory effect (%) at a dose (pmol/kg): 0.156 was determined for the compounds of examples 1-14 and is reported in Table 1.

Where [3] appears, read: western blot with phosphospecific antibodies.

Usually IC50 stands for the point on the concentration scale where inhibition reaches its midpoint.

Consider `CCCCC1(CCCC)CN(c2ccccc2)c2cc(SC)c(OCC(=O)N[C@@H](C(=O)NCC(=O)O)c3ccccc3)cc2S(=O)(=O)C1` [Example 14, 1,1-Dioxo-3,3-dibutyl-5-phenyl-7-methylthio-8-(N-{ (R)-1′-phenyl-1′-[N′-(carboxymethyl)carbamoyl]methyl}carbamoylmethoxy)-2,3,4,5-tetrahydro-1,5-benzothiazepine], for which the “Total plasma TG levels reduced” value on Slc10a2 protein (11 days treatment) is 73%. Moreover, the “Fasting levels of glucose reduced vs vehicle” value at Slc10a2 protein (11 days treatment, blood glucose) was 30%. Moreover, on Slc10a2 protein (11 days treatment, plasma), the “Fasting insulin levels reduced” value stood at 50%. For the same compound, the “Total plasma cholesterol increased” value at Slc10a2 protein (11 days treatment, tendency) is reported as 16%. On Slc10a2 protein (11 days, distal ileum), the “FGF15 mRNA level” value is “significantly reduced”, the FXR gene expression result was “unaltered”, the “IBABP mRNA level” value is “significantly reduced” and the “SHP mRNA level” value is listed as “significantly reduced”. Also, at Slc10a2 protein (11 days, liver), the “Hepatic G6Pase expression” value is reported as “reduced”, the “Hepatic GK mRNA level” value is listed as “increased”, the “Hepatic LPK mRNA reduced” value was determined as 30% and the “Hepatic PEPCK expression” value is listed as “reduced”. Further, the “Hepatic SREBP1c mRNA levels” value at Slc10a2 protein (11 days, liver) is “markedly reduced”. The “Hepatic cholesterol and TG content” value at Slc10a2 protein (11 days, liver, vs control) is reported as “no difference”. For the same compound, at Slc10a2 protein (11 days, liver, vs vehicle), the “Hepatic ACC mRNA level decreased” value is on record as 50%, the “Hepatic FAS mRNA level decreased” value is 80%, the “Hepatic SCD1 mRNA level” value is recorded as “not significantly altered” and the “Hepatic mRNA expression of FGF21” value is recorded as “doubled”. In addition, the “Hepatic mRNA level of CYP7A1” value at Slc10a2 protein (11 days, liver, vs vehicle) is listed as “increased”. At Slc10a2 protein (setting [3]), the “Akt serine 473 phosphorylation in liver lysates” value is listed as “reduced” and the “Mek1/2-Erk1/2 pathway activation in liver” value is on record as “reduced activation”. In addition, the “Glucose concentration, Baseline, Mean ± SD” value in series [1] (patients with glucose >ULN, n=4, before treatment) was 129.8 ± 7.4 mg/dL. In addition, in series [1] (patients with glucose >ULN, 10 mg, 56 days, n=4), the “Glucose concentration, End of Treatment, Mean ± SD” value came out at 82 ± 10.23 mg/dL. In series [1] (patients with glucose >ULN, 10 mg, 56 days, p 0.013 vs placebo), the “Glucose concentration % change baseline to end of treatment” value is recorded as −36.9%. Moreover, in series [1] (patients with glucose higher than ULN, 10 mg, 56 days), the “Reduction of glucose concentration, baseline vs end of treatment” value stood at 36%. The “Change of glucose concentration, baseline vs end of treatment” value in series [1] (patients with glucose lower or equal to ULN) was “did not show any significant change”. Moreover, in series [1] (patients with glucose ≦ULN, n=25, before treatment), the “Glucose concentration, Baseline, Mean ± SD” value is listed as 91.3 ± 7.52 mg/dL. The “Glucose concentration, End of Treatment, Mean ± SD” value in series [1] (patients with glucose ≦ULN, 10 mg, 56 days, n=25) amounted to 90.6 ± 12.96 mg/dL. In series [1] (patients with glucose ≦ULN, 10 mg, 56 days, p 0.653 vs placebo), the “Glucose concentration % change baseline to end of treatment” value is −1%. The midpoint of inhibition in series [2], the IC50, lay at 1.2 nM.
As for `CCCCC1(CCCC)CN(c2ccccc2)c2cc(SC)c(OCC(=O)N[C@@H](C(=O)N[C@@H](CC)C(=O)O)c3ccc(O)cc3)cc2S(=O)(=O)C1` [Example 11, 1,1-Dioxo-3,3-dibutyl-5-phenyl-7-methylthio-8-(N-{(R)-α-[N′-((S)-1-carboxypropyl)carbamoyl]-4-hydroxybenzyl}carbamoylmethoxy) -2,3,4,5-tetrahydro-1,5-benzothiazepine], on IBAT, the inhibition at 0.156 µmol/kg came out at 63%. This compound returned an IC50 in series [2] of 0.15 nM.
